Measured values as given in patent US8367729B2, “Composition with preventive or improvement effect on symptoms or diseases associated with stress-induced behavior disorders” (Suntory Holdings Limited, priority 2004, dated 2013).

Legend:
[1] = tested on: mice subjected to restraint stress; assay: Behavioral observation test (Irwin neurobehavioral test method) after 6-hour restraint stress; type: in vivo, male ICR mice; conditions: conclusion of Example 3
Excerpt: The experimental groups consisted of 51 two- to three-month-old male ICR mice, divided into a control diet group (27 mice) and a TG[…]-containing diet group (24 mice), with the control diet or TG[…]-containing diet shown in Table 1 being given to each group. Each group was further divided into non-restrained groups (non-restrained control diet group (9), non-restrained arachidonic acid (ARA) diet group (12)) and restrained groups (restrained control diet group (18), restrained ARA diet group (12)). The restraining was accomplished using a wire mesh restraining tube, once for a 6 hour period three weeks after the start of feeding. The control diet or TG[…]-containing diet shown in Table 1 continued to be fed to each group for the remaining experiment period. The TG[…] used for the TG[…]-containing diet was the product obtained in Example 1. Since the daily ingestion was approximately 5 g per mouse, the daily intake of TG[…] was 25 mg per mouse. Also, since the total fatty acids bonded to the arachidonic acid-containing oils or fats (triglycerides) prepared in Example 1 included 40 wt % arachidonic acid, the daily intake of arachidonic acid was 10 mg per mouse. The 6-hour restraint with a wire mesh restraining tube was immediately followed by a behavioral observation test. […]

[2] = tested on: IL-1β induced stress anxiety behavior models; conditions: administration of free arachidonic acid; J Lipid Res. 44, 1984, 2003; cited from earlier work

In the case of CCCCC/C=C\C/C=C\C/C=C\C/C=C\CCCC(=O)O [arachidonic acid], the “overall effect on behavioral patterns altered as a result of stress” value [1] is given as “exhibits an improving effect against behavioral disorders” and the “effect on IL-1β induced stress anxiety behavior” value [2] is given as “not effective”.
